The values below come from US20110287982A1, “CELL CULTURE DEVICE” (priority 2008, published 2011).

The subject of the assay is cardiac tissue generated from cardiomyocytes derived from human ESCs. In words: Electrophysiological recordings of cardiac tissue (CardioSpot) on porous multi-electrode arrays. Particulars: for repolarising potential (delay measured from the first signal): 30 nM E4031, control 140 ms. The class given is cell-based. The procedure:
Beating aggregates are maintained at room temperature in cryo-vials full of culture medium (Human cardiovascular progenitor cells develop from a KDR+embryonic-stem-cell-derived population. Yang L, et al., (2008). […] Culture Medium-StemPro 34 and 10 ng/mL VEGF CardioSpot made using primary or stem cell derived cardiomyocytes are placed onto the porous MEAs. Electrophysiological recordings were performed either through the supporting membrane or from under the membrane in order to get a direct contact of the tissues with recording electrodes. Control recording were performed using the culture medium as well a the solution used for reference molecules ([…], and lidocaine) Pharmacological experiments were carried out using reference compounds to characterise and validate the cardiac tissue generated from cardiomyocytes derived from human ESCs and engineered using the method of invention.

As to `Cc1cccc(CCN2CCC(C(=O)c3ccc(NS(C)(=O)=O)cc3)CC2)n1` [E4031], the “repolarising potential (delay measured from the first signal)” value is reported as 155 ms (after 5 min) and 173 ms (after 15 min).

In the case of `CCN(CC)CC(=O)Nc1c(C)cccc1C` [lidocaine], the “decrease of the amplitude of the electrophysiological signals” value (30 uM lidocaine, after 6 minutes) came to 50%. For the same compound, the “amplitude of the first signal (predominantly dependent of sodium channel opening)” value (lidocaine, within few minutes) is listed as “dramatic decrease”.
